Test results published in ChEMBL document CHEMBL4665661, “Design, synthesis, and biological activity evaluation of (-)-6-O-desmethylantofine analogues as potent anti-cancer agents” (Bioorg Med Chem, 2019).
Calls of active or inactive are those of the source. The rule behind the calls is not given here.

Experiments:
K562 [1] = assay: Cell cycle arrest in drug- resistant human K562/ADR cells assessed as inhibition of DNA synthesis by measuring increase in cell population at S phase at 1 to 100 nM upto 24 hrs by RNase A/propidium iodide staining-based flow cytometric analysis; type: functional; conditions: dose nM 1-100, time hrs <=24
Bel-7402 [2] = assay: Induction of apoptosis in human Bel-7402 cells assessed as early apoptotic cells at 0.1 uM after 72 hrs by FITC-annexin V/propidium iodide-double staining based flow cytometry (reference value: 0.65%); type: functional
Bel-7402 [3] = assay: Effect on DNA damage marker protein level in human Bel-7402 cells assessed as phosphor gamma H2AX at 100 fold antiproliferative IC50 after 1 hr by Western blot analysis; type: functional, cell-based
Bel-7402 [4] = assay: Induction of apoptosis in human Bel-7402 cells assessed as viable cells at 0.01 uM after 72 hrs by FITC-annexin V/propidium iodide-double staining based flow cytometry (reference value: 93.6%); type: functional; conditions: read-out: Activity
COLO 205 = assay: Antiproliferative activity against human COLO 205 cells incubated for 72 hrs by MTT assay; type: functional, cell-based
Hep 3B2 = assay: Antiproliferative activity against human Hep3B cells incubated for 72 hrs by MTT assay; type: functional, cell-based
K562 [5] = assay: Antiproliferative activity against human K562 cells incubated for 72 hrs by MTT assay; type: functional, cell-based
Zip177 [6] = assay: Antiproliferative activity against human […] cells incubated for 72 hrs by MTT assay; type: functional, cell-based
KB [7] = assay: Antiproliferative activity against human KB cells incubated for 72 hrs by MTT assay; type: functional, cell-based
Bel-7402 [8] = assay: Antiproliferative activity against human Bel-7402 cells at 11 to 33 nM by IncuCyte zoom live cell analysis; type: functional, cell-based; conditions: dose nM 11-33
Huh-7 = assay: Antiproliferative activity against human HuH7 cells incubated for 72 hrs by MTT assay; type: functional, cell-based
HeLa = assay: Antiproliferative activity against human HeLa cells incubated for 72 hrs by MTT assay; type: functional, cell-based
Bel-7402 [9] = assay: Cell cycle arrest in human Bel-7402 cells assessed as increase in cell population at S phase at 1.2 nM by RNase A/propidium iodide staining-based flow cytometric analysis (reference value: 26.3%); type: functional
Bel-7402 [10] = assay: Induction of apoptosis in human Bel-7402 cells assessed as necrotic cells at 0.1 uM after 72 hrs by FITC-annexin V/propidium iodide-double staining based flow cytometry (reference value: 2.86%); type: functional
BXPC-3 = assay: Antiproliferative activity against human BxPC-3 cells incubated for 72 hrs by MTT assay; type: functional, cell-based
SJRH30 = assay: Antiproliferative activity against human SJRH30 cells incubated for 72 hrs by MTT assay; type: functional, cell-based
K562/Adr = assay: Antiproliferative activity against drug- resistant human K562/ADR cells; type: functional, cell-based
Bel-7402 [11] = assay: Induction of apoptosis in human Bel-7402 cells assessed as early apoptotic cells at 1 uM after 72 hrs by FITC-annexin V/propidium iodide-double staining based flow cytometry (reference value: 0.65%); type: functional
Bel-7402 [12] = assay: Cell cycle arrest in human Bel-7402 cells assessed as increase in cell population at S phase at 11 nM by RNase A/propidium iodide staining-based flow cytometric analysis (reference value: 26.3%); type: functional
BEL-7404 tumor cell line = assay: Antiproliferative activity against human BEL-7404 cells incubated for 72 hrs by MTT assay; type: functional, cell-based
[13] = Antiproliferative activity against drug-resistant human KB/VCR cells; type: functional, cell-based
Bel-7402 [14] = assay: Induction of apoptosis in human Bel-7402 cells assessed as early apoptotic cells at 0.01 uM after 72 hrs by FITC-annexin V/propidium iodide-double staining based flow cytometry (reference value: 0.65%); type: functional
KB [15] = assay: Antiproliferative activity against human KB cells; type: functional, cell-based
MDA-MB-231 = assay: Antiproliferative activity against human MDA-MB-231 cells incubated for 72 hrs by MTT assay; type: functional, cell-based
HCT-116 = assay: Antiproliferative activity against human HCT-116 cells incubated for 72 hrs by MTT assay; type: functional, cell-based
Bel-7402 [16] = assay: Antiproliferative activity against human Bel-7402 cells after 72 hrs by SRB assay; type: functional, cell-based; conditions: Bel-7402, 72 h
KB [17] = assay: Cell cycle arrest in human KB cells assessed as inhibition of DNA synthesis by measuring increase in cell population at S phase at 1 to 10 nM upto 12 hrs by RNase A/propidium iodide staining-based flow cytometric analysis; type: functional; conditions: dose nM 1-10, time hrs <=12
MDA-MB-157 = assay: Antiproliferative activity against human MDA-MB-157 cells incubated for 72 hrs by MTT assay; type: functional, cell-based
Detroit 562 = assay: Antiproliferative activity against human Detroit 562 cells incubated for 72 hrs by MTT assay; type: functional, cell-based
SMMC-7721 = assay: Cell cycle arrest in human SMMC-7721 cells assessed as inhibition of DNA synthesis by measuring increase in cell population at S phase at 20 to 200 nM after 24 hrs by RNase A/propidium iodide staining-based flow cytometric analysis; type: functional
Bel-7402 [18] = assay: Induction of apoptosis in human Bel-7402 cells assessed as necrotic cells at 1 uM after 72 hrs by FITC-annexin V/propidium iodide-double staining based flow cytometry (reference value: 2.86%); type: functional
SK-BR-3 = assay: Antiproliferative activity against human SK-BR-3 cells incubated for 72 hrs by MTT assay; type: functional, cell-based
SU-DHL-6 = assay: Antiproliferative activity against human SU-DHL-6 cells incubated for 72 hrs by MTT assay; type: functional, cell-based
Bel-7402 [19] = assay: Induction of apoptosis in human Bel-7402 cells assessed as viable cells at 1 uM after 72 hrs by FITC-annexin V/propidium iodide-double staining based flow cytometry (reference value: 93.6%); type: functional; conditions: read-out: Activity
Bel-7402 [20] = assay: Induction of apoptosis in human Bel-7402 cells assessed as late apoptotic cells at 1 uM after 72 hrs by FITC-annexin V/propidium iodide-double staining based flow cytometry (reference value: 3.06%); type: functional
KB [21] = assay: Cell cycle arrest in drug- resistant human KB/VCR cells assessed as inhibition of DNA synthesis by measuring increase in cell population at S phase at 1 to 10 nM upto 12 hrs by RNase A/propidium iodide staining-based flow cytometric analysis; type: functional; conditions: dose nM 1-10, time hrs <=12
HL-60 = assay: Antiproliferative activity against human HL-60 cells after 72 hrs by MTT assay; type: functional, cell-based; conditions: HL-60, 72 h
KATO III = assay: Antiproliferative activity against human […] cells incubated for 72 hrs by MTT assay; type: functional, cell-based
Bel-7402 [22] = assay: Induction of apoptosis in human Bel-7402 cells assessed as viable cells at 0.1 uM after 72 hrs by FITC-annexin V/propidium iodide-double staining based flow cytometry (reference value: 93.6%); type: functional; conditions: read-out: Activity
K562 [23] = assay: Antiproliferative activity against human K562 cells; type: functional, cell-based
Zip177 [24] = assay: Cell cycle arrest in human Zip177 cells assessed as inhibition of DNA synthesis by measuring increase in cell population at S phase at 20 to 200 nM after 24 hrs by RNase A/propidium iodide staining-based flow cytometric analysis; type: functional

For `COc1cc2c3c(c4ccc(OCC#N)cc4c2cc1OC)CN1CCC[C@@H]1C3`, the Activity (K562 [1]) was “Active”, the Activity (Bel-7402 [2]) was 0.78% and the Activity (Bel-7402 [3]) was “inactive”. The viability at 0.01 µM (Bel-7402 [4]) was 96.3%, the inhibition (COLO 205) was “Active” and the inhibition (Hep 3B2) was “Active”. For the same compound, the inhibition (K562 [5]) was “Active”, the inhibition (Zip177 [6]) was “Active” and the inhibition (KB [7]) was “Active”. The inhibition (Bel-7402 [8]) was “Active”, the inhibition (Huh-7) was “Active” and the inhibition (HeLa) was “Active”. The Activity (Bel-7402 [9]) was 24.5%, the Activity (Bel-7402 [10]) was 3.09% and the inhibition (BXPC-3) was “Active”. For the same compound, the inhibition (SJRH30) was “Active”, the IC50 (K562/Adr) was 0.0158 µM and the Activity (Bel-7402 [11]) was 1.6%. For the same compound, the Activity (Bel-7402 [12]) was 28.8%, the inhibition (BEL-7404 tumor cell line) was “Active” and the IC50 [13] was 0.6 µM. The Activity (Bel-7402 [14]) was 0.55%, the IC50 (KB [15]) was 1.1 µM and the inhibition (MDA-MB-231) was “Active”. For the same compound, the inhibition (HCT-116) was “Active”, the IC50 (Bel-7402 [16]) was 0.012 µM and the Activity (KB [17]) was “Active”. For the same compound, the inhibition (MDA-MB-157) was “Active”, the inhibition (Detroit 562) was “Active” and the Activity (SMMC-7721) was “Active”. The Activity (Bel-7402 [18]) was 3.73%, the inhibition (SK-BR-3) was “Active” and the inhibition (SU-DHL-6) was “Active”. The viability at 1 µM (Bel-7402 [19]) was 79.2%, the Activity (Bel-7402 [20]) was 15.5% and the Activity (KB [21]) was “Active”. For the same compound, the IC50 (HL-60) was 0.044 µM, the inhibition (KATO III) was “Active” and the viability at 0.1 µM (Bel-7402 [22]) was 87.8%. For the same compound, the IC50 (K562 [23]) was 0.0136 µM and the Activity (Zip177 [24]) was “Active”.
